Reference: patent US6037333A, “Microbe-inhibiting compositions” (Trustees of Tufts College, priority 1998, dated 2000)
Entries after “also recorded” stand apart in the source; their conditions may differ.

How the values were obtained:
[1] = target: mannose binding protein (MBP) of Acanthamoeba (Acanthamoeba castellanii, UniProt Q6J288); experiment: Solid-phase assay of 35S-labeled Acanthamoeba binding to Man-BSA coated wells; design: species or system Acanthamoeba strain MEEI 0184 (A. castellani); conditions: for Inhibition of amoebic binding to Man-BSA / affinity of amoebic lectin: no concentration stated
From the text: The Acanthamoeba strain MEEI 0184 (A. castellani based on morphological characteristics) was derived from an infected human cornea and used throughout this study. ATCC strain 30868 should have similar properties. The parasites were axenically cultured in PYG medium. A solid-phase assay characterized the sugar binding properties of the mannose binding protein (MBP) of Acanthamoeba (Z. Yang et al., Infect. Immun. 65:439-445, 1997). Briefly, wells of microtiter plates were coated with bovine serum albumin-α-D-mannopyranosyl phenylisothiocyanate (Man-BSA, 15-25 moles of α-D-mannopyranoside/mole albumin, 0.03 μg/ml, 50μl/well in 0.1 M sodium carbonate buffer, pH 9.6, 4° C. overnight). Nonspecific binding was blocked with 1% BSA in phosphate buffered saline (PBS, 1 hour, room temperature). After adding a 50-μl aliquot of ^35 S-labeled Acanthamoeba (5×10^6 cells/ml in PBS; 1 to 2 cpm/parasite, >95% trophozoites) to each well, the plates were incubated for 2 hours at room temperature. After rinsing the cells with PBS to remove unbound Acanthamoeba, 0.1 ml of 2% sodium dodecyl sulfate (SDS) was added to each well, and the radioactivity in aliquots of solubilized material was determined in a scintillation counter.

[2] = system: Acanthamoeba-conditioned medium (ACM); experiment: CPE assay with Acanthamoeba-conditioned medium (ACM); format: cell-based
Protocol: To determine whether the mechanism modulating the CPE produced by intact amoeba and amoeba-conditioned medium (ACM) are distinct, CPE and assays were also performed using ACM in the presence and the absence of saccharides. To produce ACM, exponentially growing parasites (>95% trophozoites) in PYG media (Proteose Peptone-yeast extract-glucose , J. T. Bornes et al., J. Parasitol. 56:904-906, 1970) were rinsed twice with SFB medium and incubated in serum-free SFB medium at concentrations between 2×10^5 to 1×10^6 cells/ml in a CO2 incubator for 24 hours. After removing the parasites by centrifugation, each supernatant was analyzed for its ability to induce CPE. Saccharides (α-Man and GIcNAc, 50 mM) were added either to the ACM after it was produced or to serum-free medium used to produce an ACM. The ACM produced in the presence of the saccharides was also analyzed after removal of the saccharides by centrifugation through Centricon 3 microconcentrators (Amicon Inc., Beverly, Mass.).
To determine the role of the parasitic secretory factors in the cytopathogenic mechanism, chromium release and CPE assays were performed using ACM. In this study, parasites were incubated in the SFB media for 24 hours, centrifuged to remove parasites and the conditioned medium was tested for its ability to produce cytolysis and CPE. The ACM produced remarkable CPE. […] Approximately 6 to 8 hours following the incubation of the monolayer with the ACM, the cell sheet at the edges of the monolayer began to lift and roll inwards and eventually the entire monolayer lifted en bloc from the dish. These observations were similar to those seen when the monolayers were incubated with trophozoites in the presence of α-Man. Unlike the CPE induced by intact amoeba, the CPE induced by the ACM was not inhibited by either α-Man or GlcNAc when the sugars were added to the ACM after it was produced. In the next set of experiments, ACM was produced in the presence of α-Man or GIcNAc and was tested for CPE-inducing activity. […] In addition, the filtrate and retentate obtained after filtering the ACM in Centricon 3 microconcentrators were tested for CPE-inducing activity. When the ACM was produced in the absence of either sugar, substantially all of the CPE-inducing activity was found in the retentate obtained after Centricon filtration.

[3] = system: Acanthamoeba; experiment: 51Cr release assay of amoeba-induced cytolysis of corneal epithelium; format: cell-based
Protocol: Chromium release experiments were performed to confirm the absence or occurrence of cytolysis. Visually, cell plaques or bare spots in a culture can indicate either cell loss by cytolysis, or separation of the cell from the culture surface, wherein detached cells, although initially viable, subsequently die. Cell lysis was quantified by measuring ^51 Cr release from prelabeled cells. After incubating confluent monolayer cultures of corneal epithelium in 24-well plates in cell culture medium containing Na^51 CrO4 (460 mCi/mg, 12 μCi/ml) for 18-20 hours, the cells were thoroughly rinsed and incubated with Acanthamoeba (1×10^6 parasites/ml SFB media). The four groups were (i) Acanthamoeba in media alone, (ii) Acanthamoeba in media containing α-Man, (iii) Acanthamoeba in media containing GlcNAc, and (iv) Acanthamoeba condition media. When approximately 50-70% cell loss occurred based on phase contrast microscopy, aliquots of cell-free conditioned medium from each well were analyzed. Supernatants from the four wells in each group were pooled before analysis. Percent specific release was calculated using E/T×100, where E is CPM released in test well minus CPM released in control (parasite-free) well and T is the total CPM (CPM cells+CPM supernatant in control wells). "CPM cells" was determined by incubating control wells with 0.5% Triton X-100. Conditioned media from each well was also analyzed for lactate dehydrogenase (LDH) release using an LDH assay kit (Sigma).

[4] = target: proteinases P2 and P3; experiment: Zymography of media conditioned by amoebae with primary corneal epithelium, with or without α-Man; format: cell-based, Acanthamoeba; conditions: amoebae with host cells, adhesion blocked by saccharide
Protocol: To characterize the mechanism by which the mannose-mediated host-parasite interactions influence the amoeba-induced cytolysis and/or cytopathic effect, conditioned media obtained by incubating amoebae with primary cultures of corneal epithelium in the presence and absence of α-Man for 6 to 8 hours were analyzed by zymography. Media conditioned by only Acanthamoeba or only epithelial cells were also analyzed. Zymography was performed using separating gels containing 10% acrylamide and 2 mg/ml gelatin, essentially as described by D. E. Kleiner et al. (Anal Biochem. 218:325-329, 1994). Samples were diluted in the electrophoresis sample buffer (U. K. Laemmli, Nature 227:680-685, 1970) without mercaptoethanol and were applied to the gels. After electrophoresis, proteinases separated on the gels were renatured by incubating the gels in 2.5% Triton X-100 in 50 mM Tris-HCl, pH 7.5 to remove SDS. After incubating the gels for 18 hours in a developing buffer (50 mM Tris-HCl, pH 7.5 containing 10 mM CaCl2), the gels were stained with Coomassie brilliant blue. Areas of digestion were visualized as non-staining regions. In some experiments, samples were pre-treated with phenylmethylsulfonyl fluoride (PMSF, 1 mM), an inhibitor of […] for one hour prior to electrophoresis, or 1,10-phenanthroline (1 mM), an inhibitor of metalloproteinases, was added to the developing buffer.

Chain of mannose binding protein (MBP) of Acanthamoeba (Q6J288 entry or part of it): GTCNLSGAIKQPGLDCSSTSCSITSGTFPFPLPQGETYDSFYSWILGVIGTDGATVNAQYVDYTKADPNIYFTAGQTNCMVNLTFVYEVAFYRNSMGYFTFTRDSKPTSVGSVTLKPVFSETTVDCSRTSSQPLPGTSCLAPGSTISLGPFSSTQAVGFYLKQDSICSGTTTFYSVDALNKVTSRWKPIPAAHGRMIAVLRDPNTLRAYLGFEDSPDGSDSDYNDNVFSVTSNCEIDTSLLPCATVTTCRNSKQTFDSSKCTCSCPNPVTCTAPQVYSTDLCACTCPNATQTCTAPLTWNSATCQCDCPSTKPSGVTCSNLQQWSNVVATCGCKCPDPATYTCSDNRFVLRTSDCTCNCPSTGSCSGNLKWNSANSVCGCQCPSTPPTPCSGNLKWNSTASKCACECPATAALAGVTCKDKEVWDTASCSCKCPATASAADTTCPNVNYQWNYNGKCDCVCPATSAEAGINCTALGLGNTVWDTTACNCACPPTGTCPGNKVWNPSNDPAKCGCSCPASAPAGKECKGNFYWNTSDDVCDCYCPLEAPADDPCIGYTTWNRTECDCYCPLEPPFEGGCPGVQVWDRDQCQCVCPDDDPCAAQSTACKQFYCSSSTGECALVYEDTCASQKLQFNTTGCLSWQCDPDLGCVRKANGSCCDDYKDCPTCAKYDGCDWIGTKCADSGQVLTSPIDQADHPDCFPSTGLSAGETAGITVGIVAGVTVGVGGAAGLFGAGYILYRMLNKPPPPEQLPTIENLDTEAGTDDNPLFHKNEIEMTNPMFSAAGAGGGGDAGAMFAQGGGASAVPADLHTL

CO[C@H]1O[C@H](CO)[C@@H](O)[C@H](O)[C@@H]1O [Methyl-α-D-mannopyranoside]
Relative inhibitory potency in binding to Man-BSA ([1]; comparator named in the value, listed as α-Man): ten times that of D-mannose; also recorded: eight times that of β-Man
Inhibition of amoebic binding to Man-BSA / affinity of amoebic lectin ([1]; listed as Methyl-α-mannopyranoside): potent inhibitors
Inhibition of amoebic binding to Man-BSA / affinity of amoebic lectin ([1]; listed as α-Man): highest affinity
CPE-inducing activity of ACM produced in SFB containing the saccharide ([2]; saccharide 50 mM in medium used to produce ACM): strongly induced CPE
Inhibition of ACM-induced CPE ([2]; sugar (50 mM) added to the ACM after it was produced): not inhibited
Percentage specific 51Cr release ([3]; Acanthamoeba 1×10^6 parasites/ml in media containing the saccharide, media alone about 100): ~28%
Inhibition of amoeba-induced cytolysis ([3]; fifty millimolar, 51Cr release): more than 70%
Expression of proteinase P2 (97 kD) [4]: robustly expressed
Expression of proteinase P3 (80 kD) ([4]; listed as α-Man): not expressed; also recorded: not detected
